Results published in ChEMBL document CHEMBL4715829, “Heterodimeric Rifampicin-Tobramycin conjugates break intrinsic resistance of Pseudomonas aeruginosa to doxycycline and chloramphenicol in vitro and in a Galleria mellonella in vivo model” (Eur J Med Chem, 2019).
The source made the active and inactive calls. The calls are words filed in the database; no cut-off is given here.

What was measured:
Pseudomonas aeruginosa [1] = experiment: Antibacterial activity against wild type Pseudomonas aeruginosa PAO1 assessed as reduction in bacterial growth by measuring chloramphenicol MIC at 8 ug/ml incubated for 18 hrs in presence of chloramphenicol by broth microdilution assay (reference value: 32 ug/ml); format: functional; conditions: dose 8 µg/ml
Pseudomonas aeruginosa [2] = experiment: Antibacterial activity against Pseudomonas aeruginosa 262-101856 assessed as reduction in bacterial growth by measuring chloramphenicol MIC at 16 ug/ml incubated for 18 hrs in presence of chloramphenicol by broth microdilution assay (reference value: 2048 ug/ml); format: functional; conditions: dose 16 µg/ml
Pseudomonas aeruginosa [3] = experiment: Antibacterial activity against Pseudomonas aeruginosa 260-97103 assessed as reduction in bacterial growth by measuring chloramphenicol MIC at 2 ug/ml incubated for 18 hrs in presence of chloramphenicol by broth microdilution assay (reference value: 128 ug/ml); format: functional; conditions: dose 2 µg/ml
Pseudomonas aeruginosa [4] = experiment: Antibacterial activity against Pseudomonas aeruginosa 100036 assessed as reduction in bacterial growth by measuring chloramphenicol MIC at 4 ug/ml incubated for 18 hrs in presence of chloramphenicol by broth microdilution assay (reference value: 1024 ug/ml); format: functional; conditions: dose 4 µg/ml
Pseudomonas aeruginosa [5] = experiment: Antibacterial activity against wild type Pseudomonas aeruginosa PAO1 assessed as reduction in bacterial growth by measuring doxycycline MIC at 8 ug/ml incubated for 18 hrs in presence of doxycycline by broth microdilution assay (reference value: 16 ug/ml); format: functional; conditions: dose 8 µg/ml
Pseudomonas aeruginosa [6] = experiment: Antibacterial activity against Pseudomonas aeruginosa 260-97103 assessed as reduction in bacterial growth by measuring chloramphenicol MIC at 8 ug/ml incubated for 18 hrs in presence of chloramphenicol by broth microdilution assay (reference value: 128 ug/ml); format: functional; conditions: dose 8 µg/ml
Pseudomonas aeruginosa [7] = experiment: Antibacterial activity against Pseudomonas aeruginosa 262-101856 assessed as reduction in bacterial growth by measuring doxycycline MIC at 8 ug/ml incubated for 18 hrs in presence of doxycycline by broth microdilution assay (reference value: 1024 ug/ml); format: functional; conditions: dose 8 µg/ml
Pseudomonas aeruginosa [8] = experiment: Antibacterial activity against Pseudomonas aeruginosa 264-101354 assessed as potentiation of chloramphenicol-induced antibacterial activity by measuring chloramphenicol MIC at 7.6 uM incubated for 18 hrs in presence of chloramphenicol by broth microdilution assay (reference value: 4096 ug/ml); format: functional
Pseudomonas aeruginosa [9] = experiment: Antibacterial activity against Pseudomonas aeruginosa 101885 assessed as potentiation of doxycycline-induced antibacterial activity by measuring doxycycline MIC at 7.6 uM incubated for 18 hrs in presence of doxycycline by broth microdilution assay (reference value: 64 ug/ml); format: functional
Pseudomonas aeruginosa [10] = experiment: Potentiation of doxycycline-induced antibacterial activity against Pseudomonas aeruginosa 101243 assessed as fold change in doxycycline MIC at 7.6 uM incubated for 18 hrs in presence of doxycycline by broth microdilution assay relative to control; format: functional
Pseudomonas aeruginosa [11] = experiment: Potentiation of doxycycline-induced antibacterial activity against Pseudomonas aeruginosa 91433 assessed as fold change in doxycycline MIC at 7.6 uM incubated for 18 hrs in presence of doxycycline by broth microdilution assay relative to control; format: functional
Escherichia coli = experiment: Potentiation of chloramphenicol-induced antibacterial activity against Escherichia coli ATCC 25922 assessed as fold change in chloramphenicol MIC at 7.6 uM incubated for 18 hrs in presence of chloramphenicol by broth microdilution assay relative to control; format: functional
Pseudomonas aeruginosa [12] = experiment: Antibacterial activity against Pseudomonas aeruginosa 101243 assessed as potentiation of doxycycline-induced antibacterial activity by measuring doxycycline MIC at 9.8 uM incubated for 18 hrs in presence of doxycycline by broth microdilution assay (reference value: 4 ug/ml); format: functional
Pseudomonas aeruginosa [13] = experiment: Antibacterial activity against Pseudomonas aeruginosa 101885 assessed as potentiation of doxycycline-induced antibacterial activity by measuring doxycycline MIC at 9.8 uM incubated for 18 hrs in presence of doxycycline by broth microdilution assay (reference value: 64 ug/ml); format: functional
Pseudomonas aeruginosa [14] = experiment: Antibacterial activity against Pseudomonas aeruginosa 114228 assessed as potentiation of chloramphenicol-induced antibacterial activity by measuring chloramphenicol MIC at 9.8 uM incubated for 18 hrs in presence of chloramphenicol by broth microdilution assay (reference value: 64 ug/ml); format: functional
Pseudomonas aeruginosa [15] = experiment: Antibacterial activity against Pseudomonas aeruginosa 260-97103 assessed as fractional inhibitory concentration incubated for 18 hrs in presence of tigecycline by broth microdilution assay; format: functional
Pseudomonas aeruginosa [16] = experiment: Antibacterial activity against Pseudomonas aeruginosa 259-96918 assessed as fractional inhibitory concentration index incubated for 18 hrs in presence of tigecycline by broth microdilution assay; format: functional
Pseudomonas aeruginosa [17] = experiment: Antibacterial activity against Pseudomonas aeruginosa 259-96918 assessed as fractional inhibitory concentration index incubated for 18 hrs in presence of rifampicin by broth microdilution assay; format: functional
Pseudomonas aeruginosa [18] = experiment: Antibacterial activity against Pseudomonas aeruginosa 264-101354 assessed as fractional inhibitory concentration index incubated for 18 hrs in presence of rifampicin by broth microdilution assay; format: functional
Pseudomonas aeruginosa [19] = experiment: Antibacterial activity against Pseudomonas aeruginosa 101243 assessed as fractional inhibitory concentration index incubated for 18 hrs in presence of minocycline by broth microdilution assay; format: functional
Pseudomonas aeruginosa [20] = experiment: Potentiation of doxycycycline-induced bactericidal activity against Pseudomonas aeruginosa PAO1 assessed as reduction in bacterial colonies at 4.9 to 9.8 microM incubated for upto 24 hrs in LB medium in presence of doxycycline followed by plating on agar plate and measured after 20 hrs by time-kill assay; format: functional, organism-based; conditions: dose 4.9-9.8 µM, time hrs <=44
Pseudomonas aeruginosa [21] = experiment: Antibacterial activity against Pseudomonas aeruginosa 260-97103 infected in Galleria mellonella larvae assessed as survival of larvae at 100 mg/kg treated at 3 hrs post-infection in presence of chloramphenicol and measured after 18 hrs relative to control; format: functional
Pseudomonas aeruginosa [22] = experiment: Antibacterial activity against Pseudomonas aeruginosa 260-97103 infected in Galleria mellonella larvae assessed as survival of larvae at 75 mg/kg treated at 3 hrs post-infection in presence of chloramphenicol and measured after 24 hrs relative to control; format: functional
Pseudomonas aeruginosa [23] = experiment: Antibacterial activity against Pseudomonas aeruginosa 260-97103 infected in Galleria mellonella larvae assessed as survival of larvae treated at 3 hrs post-infection in presence of doxycycline and measured every 6 hrs for 36 hrs; format: functional, organism-based; conditions: dose 75-100 mg/kg
Pseudomonas aeruginosa [24] = experiment: Potentiation of doxycycline-induced antibacterial activity against Pseudomonas aeruginosa 262-101856 assessed as fold change in doxycycline MIC at 9.8 uM incubated for 18 hrs in presence of doxycycline by broth microdilution assay relative to control; format: functional
Pseudomonas aeruginosa [25] = experiment: Potentiation of doxycycline-induced antibacterial activity against Pseudomonas aeruginosa 101885 assessed as fold change in doxycycline MIC at 9.8 uM incubated for 18 hrs in presence of doxycycline by broth microdilution assay relative to control; format: functional
HEK293 = experiment: Cytotoxicity against human HEK293 cells assessed as cell viability at 50 uM incubated for 48 hrs in presence of chloramphenicol by prestoblue assay; format: cell-based; conditions: hek293, 48 h
Pseudomonas aeruginosa [26] = experiment: Potentiation of doxycycycline-induced bactericidal activity against Pseudomonas aeruginosa PAO1 assessed as reduction in bacterial colonies incubated for >= 24 hrs in LB medium in presence of doxycycline followed by plating on agar plate and measured after 20 hrs by time-kill assay; format: functional, organism-based; conditions: dose 4.9-9.8 µM, time hrs >=44
Pseudomonas aeruginosa [27] = experiment: Potentiation of chloramphenicol-induced bactericidal activity against Pseudomonas aeruginosa PAO1 assessed as reduction in bacterial colonies incubated for >= 24 hrs in LB medium in presence of chloramphenicol followed by plating on agar plate and measured after 20 hrs by time-kill assay; format: functional, organism-based; conditions: dose 4.9-9.8 µM, time hrs >=44

## CO[C@H]1/C=C/O[C@@]2(C)Oc3c(C)c(O)c4c(O)c(c(/C=N/N5CCN(C)CC5)c(O)c4c3C2=O)NC(=O)/C(C)=C\C=C\[C@H](C)[C@H](O)[C@@H](C)[C@@H](O)[C@@H](C)[C@H](OC(C)=O)[C@@H]1C [RIFAMPIN]
Pseudomonas aeruginosa [1]
  MIC: 32 µg/mL
Pseudomonas aeruginosa [2]
  MIC: 2050 µg/mL
Pseudomonas aeruginosa [3]
  MIC: 128 µg/mL
Pseudomonas aeruginosa [4]
  MIC: 1020 µg/mL
Pseudomonas aeruginosa [5]
  MIC: 16 µg/mL

## NC[C@H]1O[C@H](O[C@H]2[C@H](O)[C@@H](O[C@H]3O[C@H](CO)[C@@H](O)[C@H](N)[C@H]3O)[C@H](N)C[C@@H]2N)[C@H](N)C[C@@H]1O [TOBRAMYCIN]
Pseudomonas aeruginosa [6]
  MIC: 128 µg/mL
Pseudomonas aeruginosa [7]
  MIC: 1020 µg/mL

## CO[C@H]1/C=C/O[C@@]2(C)Oc3c(C)c(O)c4c(O)c(c(/C=N/N5CCN(Cc6cn(CCCCCCCCCCCCO[C@@H]7[C@@H](O[C@H]8O[C@H](CO)[C@@H](O)[C@H](N)[C@H]8O)[C@H](N)C[C@H](N)[C@H]7O[C@H]7O[C@H](CN)[C@@H](O)C[C@H]7N)nn6)CC5)c(O)c4c3C2=O)NC(=O)/C(C)=C\C=C\[C@H](C)[C@H](O)[C@@H](C)[C@@H](O)[C@@H](C)[C@H](OC(C)=O)[C@@H]1C.O=C(O)C(F)(F)F.O=C(O)C(F)(F)F.O=C(O)C(F)(F)F.O=C(O)C(F)(F)F.O=C(O)C(F)(F)F
Pseudomonas aeruginosa [8]
  MIC: 128 µg/mL
Pseudomonas aeruginosa [9]
  MIC: 2 µg/mL
Pseudomonas aeruginosa [10]
  fold change (FC): 4
Pseudomonas aeruginosa [11]
  fold change (FC): 4
Escherichia coli
  fold change (FC): 0

## CO[C@H]1/C=C/O[C@@]2(C)Oc3c(C)c(O)c4c(O)c(c(/C=N/N5CCN(Cc6cn(CCCCCCO[C@@H]7[C@@H](O[C@H]8O[C@H](CO)[C@@H](O)[C@H](N)[C@H]8O)[C@H](N)C[C@H](N)[C@H]7O[C@H]7O[C@H](CN)[C@@H](O)C[C@H]7N)nn6)CC5)c(O)c4c3C2=O)NC(=O)/C(C)=C\C=C\[C@H](C)[C@H](O)[C@@H](C)[C@@H](O)[C@@H](C)[C@H](OC(C)=O)[C@@H]1C.Cl.Cl.Cl.Cl.Cl
Pseudomonas aeruginosa [12]
  MIC: 0.25 µg/mL
Pseudomonas aeruginosa [13]
  MIC: 1 µg/mL
Pseudomonas aeruginosa [14]
  MIC: 16 µg/mL
Pseudomonas aeruginosa [15]
  FIC: <0.125
Pseudomonas aeruginosa [16]
  fractional inhibitory concentration index (FICI): <0.25
Pseudomonas aeruginosa [17]
  fractional inhibitory concentration index (FICI): <0.25
Pseudomonas aeruginosa [18]
  fractional inhibitory concentration index (FICI): 0.27
Pseudomonas aeruginosa [19]
  fractional inhibitory concentration index (FICI): <0.31
Pseudomonas aeruginosa [20]
  Activity: Active
Pseudomonas aeruginosa [21]
  survival at 100 mg/kg: 72%
Pseudomonas aeruginosa [22]
  survival at 75 mg/kg: 10%
Pseudomonas aeruginosa [23]
  Activity: Dose-dependent effect
Pseudomonas aeruginosa [24]
  fold change (FC): 4
Pseudomonas aeruginosa [25]
  fold change (FC): 4
HEK293
  Activity: Non-Toxic
Pseudomonas aeruginosa [26]
  Activity: Dose-dependent effect
Pseudomonas aeruginosa [27]
  Activity: Dose-dependent effect
